Assay results from publication PMC9462851, “Redox-controlled reorganization and flavin strain within the ribonucleotide reductase R2b–NrdI complex monitored by serial femtosecond crystallography” (eLife, 2022).

Columns and labels:
[1] = target: T1, BcR2b–NrdI complex (BcR2bMnMn–NrdI) (Bacillus cereus, UniProt Q81G55+Q81G57); assay: serial femtosecond crystallography (XFEL), […] Å; assay type: binding; details: Mn(II)/Mn(II) R2b, room temperature
T1 construct: Untagged purification from E. coli BL21(DE3), plasmids pET22b-BcnrdI and pET22b-Bcr2b; NrdI 118 residues, 13,449 Da; R2b 322 residues, 37,017 Da, produced metal-free then Mn(II)-loaded; 1:1 complex, dimer of heterodimers
T1 sequence (Q81G57 1-119): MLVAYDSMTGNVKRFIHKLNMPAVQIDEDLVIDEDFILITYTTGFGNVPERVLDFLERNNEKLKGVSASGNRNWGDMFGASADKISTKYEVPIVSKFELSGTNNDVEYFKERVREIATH
T1 sequence (Q81G55 1-322): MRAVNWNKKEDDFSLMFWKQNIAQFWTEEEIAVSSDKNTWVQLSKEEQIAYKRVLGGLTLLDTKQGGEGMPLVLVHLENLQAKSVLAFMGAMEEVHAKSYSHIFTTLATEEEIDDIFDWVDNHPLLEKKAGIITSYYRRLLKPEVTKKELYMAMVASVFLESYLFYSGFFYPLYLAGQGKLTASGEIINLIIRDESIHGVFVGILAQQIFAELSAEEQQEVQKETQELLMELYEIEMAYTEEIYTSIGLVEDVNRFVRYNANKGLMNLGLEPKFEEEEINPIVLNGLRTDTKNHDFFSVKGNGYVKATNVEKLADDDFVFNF

[2] = target: Bacillus cereus ribonucleotide reductase class Ib R2 subunit (R2b), di-manganese form (Bacillus cereus); assay: crystal structure; serial femtosecond crystallography at an XFEL (LCLS MFX), room temperature, 2.0 Å; complex reconstituted in vitro by mixing 0.25 mM BcR2b (with 12 equivalents Mn(II)Cl2) and 0.25 mM BcNrdI in 50 mM Tris-HCl pH 7.5, 20°C; batch crystals with NrdI oxidized (7Z3D) or reduced in the crystal with dithionite to the hydroquinone (7Z3E)

Cc1cc2c(cc1C)N(C[C@H](O)[C@H](O)[C@H](O)COP(=O)(O)O)c1[nH]c(=O)[nH]c(=O)c1N2 [FMNhq, hydroquinone flavin mononucleotide]
serial femtosecond crystallography (XFEL), 2.0 Å ([1]; anaerobic, crystals reduced with sodium dithionite, noncovalent FMN in NrdI at the R2b interface): The corresponding structure is denoted BcR2bMnMn–NrdIhq (PDB ID: 7Z3E)

Cc1cc2nc3c(=O)[nH]c(=O)nc-3n(C[C@H](O)[C@H](O)[C@H](O)COP(=O)(O)O)c2cc1C [FMNox, flavin mononucleotide]
serial femtosecond crystallography (XFEL), 2.0 Å ([1]; oxidized crystals grown aerobically, noncovalent FMN in NrdI at the R2b interface (R2b Phe17, Gln20)): The structure from these crystals is later referred to as BcR2bMnMn–NrdIox (PDB ID: 7Z3D)

B1: Bacillus cereus NrdI (flavoprotein with bound flavin mononucleotide) (natural protein)
chain: MLVAYDSMTGNVKRFIHKLNMPAVQIDEDLVIDEDFILITYTTGFGNVPERVLDFLERNNEKLKGVSASGNRNWGDMFGASADKISTKYEVPIVSKFELSGTNNDVEYFKERVREIAT
stoichiometry N [2]: 1
